What all share (assay): DTP human tumour cell line panel, 48 h
For assay [1], the system named is MOLT-4 leukemia.
Assay [2] concerns CCRF-CEM leukemia.
The test system of assay [3] is KM12 colon.
In assay [4] the test system is NCI-H460 lung.
The test system of assay [5] is NCI-H23 lung.
Assay [6] has as its system HCT-15 colon.
The test system of assay [7] is A549 NSCLC.
Assay [8] has as its system K-562 leukemia.
For assay [9], the system named is CAKI-1 renal.
The test system of assay [10] is NCI-H522 lung.
The test system of assay [11] is HS 578T breast.
In assay [12] the test system is NCI-H226 lung.
Assay [13] has as its system HL-60(TB) leukemia.
The test system of assay [14] is OVCAR-5 ovarian.
Assay [15] deals with U251 CNS.

Molecules are shown by their SMILES.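 Step 1: Grow cells in 96-well plates. Step 2: Expose to compound for 48 hours at 5 concentrations. Step 3: Interpolate endpoints linearly; if unreached, use highest concentration. TGI denotes the concentration required for complete inhibition of growth.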 Bounds are passed on as bounds.

As a reminder, the TGI is the concentration at which net growth stops.

`Cc1ccc([N+](=O)[O-])cc1S(=O)(=O)Nc1ccc(C2=NOC(c3ccccc3)C2)cc1` (stereo not drawn): the TGI was 9.23 µM in assay [1]; 59.2 µM in [2]; 18.5 µM in [3]; 29.1 µM in assay [4]; greater than 100 µM in assay [5]; greater than 100 µM in assay [6]. Moreover, the TGI in [7] was greater than 100 µM; in assay [8] it was 5.14 µM; in [9], 32.7 µM; in [10] it was 30.1 µM; in assay [11], greater than 100 µM; in assay [12], greater than 100 µM. Moreover, the TGI in assay [13] is 25.2 µM; in assay [14], greater than 100 µM.
For `COc1ccc(C[C@H]2NC[C@H](OC(C)=O)[C@H]2OC(C)=O)cc1`, the TGI worked out at 1.98 µM in [1]; 1.6 µM in [15]; 1.18 µM in assay [2]; 1.46 µM in [3]; 1.44 µM in assay [4]; 0.94 µM in assay [5]. The TGI in assay [6] is 0.975 µM; in assay [7] it was 1.08 µM; in [8], 51.6 µM; in assay [9] it was 0.544 µM; in assay [10], 0.289 µM; in [11], 0.465 µM. In addition, the TGI in [12] stood at 1.08 µM; in assay [13] it was 0.326 µM; in assay [14], 0.679 µM.
`Cc1nc(C)c(N2CCN(C(=O)NC(CCC(=O)O)C(=O)O)CC2)c(=O)[nH]1` (stereo not drawn): the TGI in assay [1], in assay [15], in assay [2], in assay [3], in assay [4] and in [5] was greater than 100 µM in each case. The TGI in [6], in assay [7], in [8], in [9], in assay [10] and in assay [11] was greater than 100 µM each time. The TGI in [12], in assay [13] and in assay [14] was greater than 100 µM in each case.
Regarding `O=S(=O)(O)c1ccc(N=Nc2c(O)ccc3ccccc23)cc1`, the TGI in [1], in assay [15], in [2], in assay [3], in [4] and in assay [5] was greater than 100 µM throughout. Further, the TGI in [6], in assay [7], in assay [8], in assay [9], in [10] and in assay [11] was greater than 100 µM each time. In addition, the TGI in assay [12], in assay [13] and in assay [14] was greater than 100 µM in each case.
Turning to `O=c1[nH]nc(Cc2ccccc2)n1N=C1CCCCC1`, the TGI in [1], in assay [15], in [2], in [3], in assay [4] and in [5] was greater than 100 µM in each case. Moreover, the TGI in [6], in assay [7], in assay [8], in assay [9], in assay [10] and in assay [11] was greater than 100 µM each time. The TGI in [12], in assay [13] and in [14] was greater than 100 µM throughout.
With `CN(C)Cc1cc(N=Nc2c(Cl)cccc2Cl)ccc1O`, the TGI in assay [1], in assay [15], in [2], in assay [3], in assay [4] and in assay [5] was greater than 100 µM in each case. Besides, the TGI in assay [6], in assay [7], in [8], in [9], in assay [10] and in assay [11] was greater than 100 µM each time. The TGI in assay [12] and in [13] was greater than 100 µM throughout.
In the case of `CN(C)c1ccc(/C=C(\NC(=O)c2ccccc2)c2nc3ccccc3c(=O)o2)cc1`, the TGI in assay [1], in assay [15], in assay [2], in assay [3], in [4] and in [5] was greater than 100 µM each time. Moreover, the TGI in [6], in assay [7], in assay [8], in assay [9], in assay [10] and in assay [11] was greater than 100 µM in each case. Also, the concentration for total growth inhibition (TGI) in assay [12], in assay [13] and in assay [14] was greater than 100 µM in each case.
With `Cc1nc2ccc(S(=O)(=O)Nc3ccccn3)cc2c(=O)n1NS(=O)(=O)c1ccccn1`, the TGI in assay [1], in assay [15], in [2], in [3], in [4] and in [5] was greater than 100 µM in each case. For the same compound, the TGI in [6], in [8], in assay [9], in assay [10], in assay [11] and in [12] was greater than 100 µM throughout. Further, the TGI in assay [13] and in assay [14] was greater than 100 µM each time.
Consider `CCOC(=O)CCN1C(=O)c2ccc(NC(=O)C(=O)O)cc2S1(=O)=O`, for which the TGI in assay [1], in assay [15], in [2], in assay [3], in assay [4] and in assay [5] was greater than 100 µM throughout. In addition, the total growth inhibition concentration (TGI) in assay [6], in [7], in assay [8], in assay [9], in assay [10] and in [11] was greater than 100 µM each time. The TGI in [12], in [13] and in assay [14] was greater than 100 µM throughout.
In the case of `CSC1=C(C)S/C(=C\c2ccc(/C=C3\SC(C)=C(SC)S3)cc2)S1`, the TGI in assay [1], in assay [15], in assay [2], in assay [3], in assay [4] and in [5] was greater than 100 µM throughout. Moreover, the TGI in assay [6], in [7], in assay [8], in assay [9], in [10] and in assay [11] was greater than 100 µM throughout. The TGI in assay [12], in assay [13] and in assay [14] was greater than 100 µM each time.
With `N#Cc1c(-c2cccc(Br)c2)cc(-c2ccc(Cl)cc2)nc1N`, the TGI in assay [1] was found to be 50.1 µM; in assay [15], 32.8 µM; in [2], 87.5 µM; in assay [3], 60.4 µM; in [4], 50.8 µM; in [5] it was 71.7 µM. Further, the TGI in assay [6] worked out at 30 µM; in [7] it was 57 µM; in assay [8] it was 81.9 µM; in assay [9] it was 79.1 µM; in [10], 30.4 µM; in assay [11] it was 43.1 µM. The TGI in assay [12] came out at 38.1 µM; in [13] it was 69 µM; in assay [14], 65.2 µM.
In the case of `COc1nc(N)nc2c1n(C)c[n+]2C`, the TGI in [1], in assay [15], in assay [2], in assay [3], in assay [4] and in assay [5] was greater than 100 µM throughout. Besides, the TGI in [6], in [7], in [8], in assay [9], in assay [10] and in assay [11] was greater than 100 µM each time. In addition, the TGI in assay [12], in assay [13] and in [14] was greater than 100 µM in each case.
Turning to `CC(C)C(=O)CC(Sc1ccc(N)cc1)c1ccccc1` (stereo not drawn), the TGI in assay [1] is greater than 100 µM; in [15], 32.9 µM; in assay [2] it was 70.7 µM; in [3] it was greater than 100 µM; in [4], 74.9 µM; in assay [5] it was 58.2 µM. The TGI was greater than 100 µM in assay [6]; greater than 100 µM in assay [7]; greater than 100 µM in [8]; greater than 100 µM in assay [9]; 30.2 µM in assay [10]; 67.6 µM in assay [11]. Moreover, the TGI was greater than 100 µM in assay [12], 49.2 µM in assay [13] and greater than 100 µM in assay [14].
Consider `COc1cc(/C=C2\N=C(c3ccccc3)N(c3ccc(S(=O)(=O)Nc4nccs4)cc3)C2=O)ccc1O`, for which the TGI in [1], in [15], in [2], in assay [3], in assay [4] and in assay [5] was greater than 100 µM throughout. Further, the TGI in [6], in assay [7], in [8], in assay [9], in assay [10] and in assay [11] was greater than 100 µM in each case. The TGI in [12], in assay [13] and in assay [14] was greater than 100 µM in each case.
Regarding `CCCCCCCCCCCCOCCCCCCCCC/C=C/c1ccc2c(c1)OCCOCCOCCOCCO2`, the TGI was greater than 100 µM in assay [1]; 40.6 µM in [15]; greater than 100 µM in assay [2]; 31.1 µM in [3]; 37.9 µM in assay [4]; 30.9 µM in [5]. The concentration for total growth inhibition (TGI) in assay [6] was greater than 100 µM; in assay [7], 36.6 µM; in assay [8] it was greater than 100 µM; in assay [9] it was 33.5 µM; in assay [10], 28.3 µM; in assay [11], 47.3 µM. The values for the total growth inhibition concentration (TGI) in [12], in assay [13] and in assay [14] were 36.7 µM, greater than 100 µM and greater than 100 µM, respectively.
Turning to `N/C(=N\Nc1cccc(Cl)c1)c1cccnc1`, the TGI in assay [1], in assay [15], in assay [2], in assay [3], in assay [4] and in assay [5] was greater than 100 µM each time. Besides, the TGI in [6], in assay [7], in [8], in [9], in [10] and in assay [11] was greater than 100 µM throughout. In addition, the TGI in assay [12] was greater than 100 µM; in assay [13], greater than 66.9 µM; in assay [14], greater than 100 µM.
For the compound `COC(=O)CC(SCCO)SCCO`, the concentration for total growth inhibition (TGI) in assay [1], in [2], in [3], in assay [4], in assay [5] and in assay [7] was greater than 100 µM each time. Besides, the TGI in assay [8], in [9], in [10], in [11], in assay [12] and in assay [13] was greater than 100 µM in each case. The TGI in [14] was greater than 100 µM.
Consider `CCOc1cc(NC(C)=O)ccc1C(=O)NN1C(=O)C(Cl)C1c1ccc(O)c(OC)c1` (stereo not drawn), for which the TGI in assay [1] came out at 19 µM; in assay [2] it was 25.8 µM; in assay [3], 33.6 µM; in assay [4] it was 33.1 µM; in [5] it was 25.4 µM; in assay [6] it was 29.9 µM. Also, the TGI in assay [7] came to 32.5 µM; in assay [8] it was 25.1 µM; in [9], 31.4 µM; in assay [10] it was 22.8 µM; in [11], 51.5 µM; in assay [12], 48.3 µM. In addition, the values for the TGI in assay [13] and in [14] were 38.3 µM and 33.9 µM, respectively.
Take `COc1ccc(-c2c(C#N)c(N)n(C3OCC(O)C(O)C3O)c(=S)c2C#N)cc1` (stereo not drawn): the TGI in assay [1], in assay [2], in assay [3], in assay [4], in assay [5] and in assay [6] was greater than 100 µM throughout. Further, the TGI in assay [7], in assay [8], in assay [9], in [10], in [11] and in assay [12] was greater than 100 µM throughout. Besides, the TGI in assay [13] and in assay [14] was greater than 100 µM throughout.

For the origin of these results see PubChem BioAssay (NCI).
